Test results: US11964988B2, “Fused heterocyclic compounds as RET kinase inhibitors” (ARRAY BIOPHARMA INC., priority 2018, dated 2024)
Residue numbers refer to the chain shown, from its start. pIC50: −log10 of the molar value.

Tests used:
RET kinase Wild Type = RET kinase Wild Type (Homo sapiens, UniProt P07949); test: biochemical;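 also: HTRF kinase activity assay on RET enzyme, 1 h reaction at 22 °C, dual-wavelength readout as percent of control, DMSO-only wells as 100%, pre-quenched reactions as 0%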
Procedure: (§2) The potency of compounds inhibiting several different RET kinase forms (Wild Type, V804M, G810R, & G810S) were determined using CisBio's HTRF® KinEASE™-TK assay technology. […] After a 1 hour incubation at 22° C., the extent of reaction was determined using a PerkinElmer EnVision multimode plate reader via HTRF dual wavelength detection, and the percent of control (POC) was calculated using a ratiometric emission factor. One hundred POC was determined using DMSO only samples (no compound present), and 0 POC was determined using pre-quenched control reactions.

G810R mutant RET kinase = G810R mutant RET kinase (Homo sapiens, UniProt P07949, G810R); test: biochemical;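 also: HTRF KinEASE-TK enzymatic assay with 1 nM recombinant RET G810R, 1 h at 22 °C, dual-wavelength ratiometric readout, 100% control without compound, 0% from pre-quenched reactions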
[1] = target: T1, HEK-293 cells expressing a G810S mutant RET Kif5b-RET fusion protein (Homo sapiens, UniProt P07949, G810S); test: RET G810S Mutant Cell Assay (phospho-RET Tyr1062); type: cell-based; settings: HEK-293 Kif5b-RET G810S, 1 hour incubation, phospho-RET normalized to GAPDH
T1 construct: KIF5B (N-terminal portion incl. coiled-coil); expressed in transfected cells; host or cells: HEK-293
T1 sequence (P07949 713-1063 G810S limits assumed): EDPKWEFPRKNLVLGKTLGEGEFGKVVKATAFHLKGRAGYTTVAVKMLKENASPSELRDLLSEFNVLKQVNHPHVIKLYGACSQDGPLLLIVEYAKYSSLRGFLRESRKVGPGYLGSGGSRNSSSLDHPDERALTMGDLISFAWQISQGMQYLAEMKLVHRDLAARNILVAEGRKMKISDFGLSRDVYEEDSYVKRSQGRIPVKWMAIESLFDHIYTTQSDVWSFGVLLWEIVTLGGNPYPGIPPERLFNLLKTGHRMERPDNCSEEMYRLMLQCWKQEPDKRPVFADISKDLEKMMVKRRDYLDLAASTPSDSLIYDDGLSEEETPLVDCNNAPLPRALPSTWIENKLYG
Procedure: (§1) The cellular potency of compounds inhibiting RET kinase were determined in HEK-293 cells expressing a G810R or G810S mutant RET Kif5b-RET fusion protein. Briefly, HEK-293 cells expressing a G810R or G810S mutant RET Kif5b-RET fusion protein were plated at 50K cells/well in 96 well poly-D-Lysine coated plates the day prior to the assay. The cells were incubated for 1 hour with test compound in DMEM (Dulbecco's Modified Eagle Medium) at a final DMSO concentration of 0.5%. […] After 1 hour the media was removed, the cells were fixed with 3.8% formaldehyde for 20 min, washed with PBS, and permeabilized for 10 min with 100% methanol. The plates were then washed with PBS-0.05% Tween20, and blocked with LI-COR Blocking solution (LI-COR Catalog No. 927-40000) for 1 hour. Plates were washed with PBS-0.05% Tween20, then incubated with anti-phospho-RET (Tyr1062) (Santa Cruz Catalog No. sc-20252-R) antibody and anti-GAPDH (Millipore Catalog No. MAB374) antibody for 2 hours. The plates were washed with PBS-0.05% Tween20, and incubated with anti-rabbit 680 (Molecular Probes Catalog No. A21109) and anti-mouse 800 (LI-COR Catalog No. 926-32210) secondary antibodies for 1 hour. All antibodies were diluted in LI-COR Block containing 0.05% Tween. The plates were washed with PBS-0.05% Tween20,100 μL PBS was added to each well, and the plates were read on a LI-COR Aerius fluorescent plate reader. The phospho-RET signal was normalized to the GAPDH signal. […] The POC values are fit to a 4 parameter logistic curve. The IC50 value is the point where the curve crosses 50 POC.

G810S mutant RET kinase = G810S mutant RET kinase (Homo sapiens, UniProt P07949, G810S); test: biochemical;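 also: HTRF KinEASE-TK kinase assay with recombinant enzyme, 1 h at 22 °C, dual-wavelength ratiometric read-out, percent of control (DMSO-only = 100, pre-quenched reaction = 0)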
[2] = target: T2, HEK-293 cells expressing a Kif5b-RET fusion protein (Homo sapiens, UniProt P07949); test: RET Cell Assay (phospho-RET Tyr1062); type: cell-based; settings: HEK-293 Kif5b-RET, 1 hour incubation, phospho-RET normalized to GAPDH; read-out: KIF5B-RET pTYR1062 Cell IC50
T2 construct: KIF5B (N-terminal portion incl. coiled-coil); expressed in transfected cells; host or cells: HEK-293; the other entry of the earlier key: KIF5B (P33176, Kinesin-1 heavy chain)
T2 sequence (P07949 713-1063 limits assumed): T1 sequence (P07949 713-1063 G810S limits assumed) with S98G
How it was run: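 Phospho-RET (Tyr1062) to GAPDH ratio read by in-cell fluorescent immunodetection after 1 hour compound exposure in DMEM, 0.5% DMSO. Cells: HEK-293 carrying Kif5b-RET fusion. POC data fit to a 4-parameter logistic curve, IC50 taken at 50 POC.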

[3] = target: T3, HEK-293 cells expressing a G810R mutant RET Kif5b-RET fusion protein (Homo sapiens, UniProt P07949, G810R); test: RET G810R Mutant Cell Assay (phospho-RET Tyr1062); type: cell-based; settings: HEK-293 Kif5b-RET G810R, 1 hour incubation, phospho-RET normalized to GAPDH
T3 construct: KIF5B (N-terminal portion incl. coiled-coil); expressed in transfected cells; host or cells: HEK-293; the other entry of the earlier key: KIF5B (P33176, Kinesin-1 heavy chain)
T3 sequence (P07949 713-1063 G810R limits assumed): T1 sequence (P07949 713-1063 G810S limits assumed) with S98R
Procedure: as §1

RET kinase V804M = RET kinase V804M (Homo sapiens, UniProt P07949, V804M); test: RET Enzyme Assay (CisBio HTRF KinEASE-TK), V804M; type: biochemical; settings: read-out: RET V804M Enz FRET IC50
RET kinase V804M, sequence (P07949 29-1114 V804M): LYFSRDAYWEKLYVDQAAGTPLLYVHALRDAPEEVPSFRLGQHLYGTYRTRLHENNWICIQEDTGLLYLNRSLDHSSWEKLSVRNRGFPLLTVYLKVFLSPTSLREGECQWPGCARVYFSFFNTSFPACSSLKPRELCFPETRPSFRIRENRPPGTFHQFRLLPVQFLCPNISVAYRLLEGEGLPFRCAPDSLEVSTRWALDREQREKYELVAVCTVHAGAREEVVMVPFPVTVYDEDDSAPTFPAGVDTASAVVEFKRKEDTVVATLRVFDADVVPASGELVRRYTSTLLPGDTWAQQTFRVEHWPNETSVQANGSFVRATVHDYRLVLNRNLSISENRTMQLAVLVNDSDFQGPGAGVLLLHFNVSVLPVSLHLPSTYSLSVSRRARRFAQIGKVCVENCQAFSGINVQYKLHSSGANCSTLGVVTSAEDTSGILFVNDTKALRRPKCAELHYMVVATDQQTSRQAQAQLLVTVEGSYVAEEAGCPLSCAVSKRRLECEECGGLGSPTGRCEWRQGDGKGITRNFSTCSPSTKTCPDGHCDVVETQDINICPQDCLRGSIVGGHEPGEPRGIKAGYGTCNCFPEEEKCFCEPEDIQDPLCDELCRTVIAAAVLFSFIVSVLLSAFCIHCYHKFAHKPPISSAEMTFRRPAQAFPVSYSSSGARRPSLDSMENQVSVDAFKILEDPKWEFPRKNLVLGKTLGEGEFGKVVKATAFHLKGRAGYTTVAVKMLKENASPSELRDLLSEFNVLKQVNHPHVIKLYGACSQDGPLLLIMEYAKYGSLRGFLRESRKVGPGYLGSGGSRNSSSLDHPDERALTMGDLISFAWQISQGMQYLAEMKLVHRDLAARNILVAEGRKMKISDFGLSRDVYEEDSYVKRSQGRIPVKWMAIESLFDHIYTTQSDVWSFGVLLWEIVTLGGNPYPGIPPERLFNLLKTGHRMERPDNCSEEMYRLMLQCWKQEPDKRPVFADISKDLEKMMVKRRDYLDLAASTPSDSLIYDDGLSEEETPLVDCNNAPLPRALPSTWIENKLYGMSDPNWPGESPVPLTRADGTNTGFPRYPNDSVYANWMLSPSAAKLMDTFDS
Procedure: as §2

RET kinase Wild Type, sequence (P07949 29-1114): as the sequence (P07949 29-1114 V804M) above, with M776V counted along it
G810R mutant RET kinase, sequence (P07949 29-1114 G810R): as the sequence (P07949 29-1114 V804M) above, with M776V, G782R counted along it
G810S mutant RET kinase, sequence (P07949 29-1114 G810S): as the sequence (P07949 29-1114 V804M) above, with M776V, G782S counted along it

pIC50 (RET kinase Wild Type) | pIC50 (G810R mutant RET kinase) | pIC50 [1] | pIC50 (G810S mutant RET kinase) | pIC50 [2] | pIC50 [3] | pIC50 (RET kinase V804M) | SMILES
6.87 | 5.85 | 7.21 | 6.09 | 7.37 | 7.12 | – | CC(C)n1c2c(c3c(N)ncnc31)-c1cc3ccc(C(=O)Nc4ccn(CCC(F)(F)F)n4)cc3n1CCC2 [Example 101, 1-amino-5-isopropyl-N-(1-(3,3,3-trifluoropropyl)-1H-pyrazol-3-yl)-5,6,7,8-tetrahydropyrimido[5″,4″:4′,5′]pyrrolo[3′,2′: 3,4]azepino[1,2-a]indole-11-carboxamide]
7.12 | 5.99 | 7.44 | 6.32 | 7.80 | 7.31 | – | CC(=O)Nc1ccc2cc3n(c2c1)CCCc1c-3c2c(N)ncnc2n1C(C)C [Example 139, N-(1-amino-5-isopropyl-5,6,7,8-tetrahydropyrimido[5″,4″:4′,5′]pyrrolo[3′,2′:3,4]azepino[1,2-a]indol-11-yl)acetamide]
6.29 | 5.51 | 5.20 | 5.58 | 5.40 | 4.79 | – | CC(C)n1c2c(c3c(N)ncnc31)-c1cc3ccc(C(=O)NC4CC4)cc3n1C(=O)NC2 [Example 72, 1-amino-N-cyclopropyl-5-isopropyl-8-oxo-5,6,7,8-tetrahydropyrimido[5″,4″:4′,5′]pyrrolo[2′,3′:5,6][1,3]diazepino[1,7-a]indole-11-carboxamide]

Continued, molecule first:

SMILES | pIC50 (RET kinase Wild Type) | pIC50 (G810R mutant RET kinase) | pIC50 [1] | pIC50 (G810S mutant RET kinase) | pIC50 [2] | pIC50 [3] | pIC50 (RET kinase V804M)
CC(C)n1c2c(c3c(N)ncnc31)-c1cc3cc(Cl)ccc3n1C(=O)NC2 [Example 77, 1-amino-12-chloro-5-isopropyl-6,7-dihydropyrimido[5″,4″:4′,5′]pyrrolo[2′,3′: 5,6][1,3]diazepino[1,7-a]indol-8(5H)-one] | 7.57 | 6.87 | 7.49 | 7.14 | 7.89 | 7.05 | –
COC(=O)c1ccc2c(Cl)c3n(c2c1)C(=O)NCc1c-3c2c(N)ncnc2n1C(C)C [Example 75, Methyl 1-amino-14-chloro-5-isopropyl-8-oxo-5,6,7,8-tetrahydropyrimido[5″,4″:4′,5′]pyrrolo[2′,3′:5,6][1,3]diazepino[1,7-a]indole-11-carboxylate] | 7.09 | 6.38 | 6.72 | 7.29 | – | 6.77 | 5.69
CC(C)n1c2c(c3c(N)ncnc31)-c1cc3c(F)cccc3n1C(=O)NC2 [Example 83, 1-amino-13-fluoro-5-isopropyl-6,7-dihydropyrimido[5″,4″:4′,5′]pyrrolo[2′,3′: 5,6][1,3]diazepino[1,7-a]indol-8(5H)-one] | 7.20 | 7.24 | 6.09 | 7.01 | 6.53 | 5.97 | –
COC(=O)c1ccc2cc3n(c2c1)C(=O)NCc1c-3c2c(N)ncnc2n1C(C)C [Example 70, Methyl 1-amino-5-isopropyl-8-oxo-5,6,7,8-tetrahydropyrimido[5″,4″:4′,5′]pyrrolo[2′,3′:5,6][1,3]diazepino[1,7-a]indole-11-carboxylate] | 7.04 | 6.74 | 6.41 | 6.51 | 6.78 | 6.22 | –
Nc1ncnc2c1c1c(n2-c2ccccc2)CNC(=O)c2c-1noc2C1CC1 [Example 110, 11-amino-3-cyclopropyl-7-phenyl-6,7-dihydroisoxazolo[4,3-c]pyrimido[5′,4′:4,5]pyrrolo[3,2-e]azepin-4(5H)-one 2,2,2-trifluoroacetate] | 6.39 | 6.67 | 6.70 | 6.55 | – | 6.27 | 5.76
CNC(=O)c1ccc2c(Cl)c3n(c2c1)C(=O)NCc1c-3c2c(N)ncnc2n1C(C)C [Example 74, 1-Amino-14-chloro-5-isopropyl-N-methyl-8-oxo-5,6,7,8-tetrahydropyrimido[5″,4″:4′,5′]pyrrolo[2′,3′:5,6][1,3]diazepino[1,7-a]indole-11-carboxamide] | 6.45 | 5.68 | 6.04 | 6.54 | – | 5.53 | 5.22
